Source: the supplement of paper PMC11061612

How the values were obtained:
[1] = compound: C1CC(C1)(C(=O)[O-])C(=O)[O-].N.N.[Pt+2] [Carboplatin]; conditions: max 10 µM
Outline: (§1)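 After 24 hours at 37°C and 5% CO2 in 1536-well plates holding 7.5 μl of DMEM/F12 or RPMI with 10% FBS, cancer cell lines were dosed for 72 hours, with final DMSO typically 0.2%. Viability came from CellTiter-Glo 2.0 luminescence, scaled between the means of blank wells and DMSO wells. A non-linear mixed effects model fitted a two-parameter logistic curve to each dose response to give the single-agent IC50.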

[2] = compound: C1CN(CCC1(C(=O)N[C@@H](CCO)C2=CC=C(C=C2)Cl)N)C3=NC=NC4=C3C=CN4 [AZD5363]; conditions: max 10 µM
Outline: as §1

[3] = compound: C=CCn1c(=O)c2cnc(Nc3ccc(N4CCN(C)CC4)cc3)nc2n1-c1cccc(C(C)(C)O)n1 [AZD1775]; conditions: max 3 µM
Outline: as §1

[4] = compound: CC(=O)Nc1cccc(-n2c(=O)n(C3CC3)c(=O)c3c(Nc4ccc(I)cc4F)n(C)c(=O)c(C)c32)c1 [Trametinib]; conditions: max 1 µM
Outline: as §1

[5] = compound: CC(=O)O[C@H]1C(=O)[C@@]2(C)[C@H]([C@H](OC(=O)c3ccccc3)[C@]3(O)C[C@H](OC(=O)[C@H](O)[C@@H](NC(=O)c4ccccc4)c4ccccc4)C(C)=C1C3(C)C)[C@]1(OC(C)=O)CO[C@@H]1C[C@@H]2O [Paclitaxel]; conditions: max 3 µM
Outline: as §1

[6] = compound: CC(=O)c1c(C)c2cnc(Nc3ccc(N4CCNCC4)cn3)nc2n(C2CCCC2)c1=O [Palbociclib]; conditions: max 10 µM
Outline: as §1

[7] = compound: CC(C)n1c(=O)n(C)c2cnc3cc(F)c(-c4ccc(OCCCN5CCCCC5)nc4)cc3c21 [AZD1390]; conditions: max 0.3 µM
Outline: as §1

[8] = compound: CC1(C)CCC(CN2CCN(c3ccc(C(=O)NS(=O)(=O)c4ccc(NCC5CCOCC5)c([N+](=O)[O-])c4)c(Oc4cnc5[nH]ccc5c4)c3)CC2)=C(c2ccc(Cl)cc2)C1 [Venetoclax]; conditions: max 1 µM
Outline: as §1

[9] = compound: CC1=C(C(=CC=C1)Cl)NC(=O)C2=CN=C(S2)NC3=CC(=NC(=N3)C)N4CCN(CC4)CCO [Dasatinib]; conditions: max 2 µM
Outline: as §1

[10] = compound: CC1=CN2[C@@H](C1)C=NC3=CC(=C(C=C3C2=O)OC)OCCCCCOC4=C(C=C5C(=C4)N=C[C@@H]6CC(=CN6C5=O)C)OC [SG3199]; conditions: max 0.001 µM
Outline: as §1

[11] = compound: CCN(CCO)CCCOc1ccc2c(Nc3cc(CC(=O)Nc4cccc(F)c4)[nH]n3)ncnc2c1 [AZD2811]; conditions: max 1 µM
Outline: as §1

[12] = compound: CCc1c2c(nc3ccc(O)cc13)-c1cc3c(c(=O)n1C2)COC(=O)[C@]3(O)CC [SN-38]; conditions: max 0.3 µM
Outline: as §1

[13] = compound: CN(C)CCCOc1ccc(-c2ccc3ncc4c(c3c2)n(C2CCOCC2)c(=O)n4C)cn1 [AZD0156]; conditions: max 3 µM
Outline: as §1

[14] = compound: CN(CC[C@H](CSC1=CC=CC=C1)NC2=C(C=C(C=C2)S(=O)(=O)NC(=O)C3=CC=C(C=C3)N4CCC(CC4)[C@H](C5=CC=CC=C5C6=CC=C(C=C6)Cl)O)S(=O)(=O)C(F)(F)F)CCO [AZD4320]; conditions: max 1 µM
Outline: as §1

[15] = compound: COc1cc(Nc2ncc3c(n2)-c2ccc(Cl)cc2C(c2c(F)cccc2OC)=NC3)ccc1C(=O)O [Alisertib]; conditions: max 10 µM
Outline: as §1

[16] = compound: COc1cc([C@@H]2c3cc4c(cc3[C@@H](O[C@@H]3O[C@@H]5CO[C@@H](C)O[C@H]5[C@H](O)[C@H]3O)[C@H]3COC(=O)[C@H]23)OCO4)cc(OC)c1O [Etoposide]; conditions: max 10 µM
Outline: as §1

[17] = compound: COc1cc2ncnc(Nc3ccc(F)c(Cl)c3)c2cc1OCCCN1CCOCC1 [Gefitinib]; conditions: max 10 µM
Outline: as §1

[18] = compound: COc1cccc(OCCCN)c1-c1cc(Nc2cnc(C#N)cn2)n[nH]1 [Prexasertib]; conditions: max 1 µM
Outline: as §1

[19] = compound: COc1cccc2c1C(=O)c1c(O)c3c(c(O)c1C2=O)C[C@@](O)(C(=O)CO)C[C@@H]3O[C@H]1C[C@H](N)[C@H](O)[C@H](C)O1 [Doxorubicin]; conditions: max 1 µM
Outline: as §1

[20] = compound: COc1nnc2ccc(N3CCC(c4ccc(OCCN5CCN(C)C(=O)[C@H]5C)cc4)CC3)nn12 [AZD5153]; conditions: max 1 µM
Outline: as §1

[21] = compound: CS(=O)(=O)CCNCc1ccc(-c2ccc3ncnc(Nc4ccc(OCc5cccc(F)c5)c(Cl)c4)c3c2)o1 [Lapatinib]; conditions: max 10 µM
Outline: as §1

[22] = compound: C[C@@H](Nc1cc(F)cc(F)c1)c1cc(C(=O)N(C)C)cc2c(=O)cc(N3CCOCC3)oc12 [AZD8186]; conditions: max 10 µM
Outline: as §1

[23] = compound: C[C@@H](Oc1cc(-c2cnn(C3CCNCC3)c2)cnc1N)c1c(Cl)ccc(F)c1Cl [Crizotinib]; conditions: max 10 µM
Outline: as §1

[24] = compound: C[C@@H](c1ccc2nccn2c1)n1nnc2ncc(-c3cnn(C)c3)nc21 [Savolitinib]; conditions: max 1 µM
Outline: as §1

[25] = compound: C[C@@H]1COCCN1C2=NC(=NC(=C2)C3(CC3)[S@](=N)(=O)C)C4=C5C=CNC5=NC=C4 [AZD6738]; conditions: max 10 µM
Outline: as §1

[26] = compound: Cc1c2c(nn1C)CSCc1cc(n(C)n1)CSc1cc(c3ccccc3c1)OCCCc1c(C(=O)O)n(C)c3c-2c(Cl)ccc13 [AZD5991]; conditions: max 1 µM
Outline: as §1

[27] = compound: Cc1cc2ncnn2cc1Nc1ncc2c(n1)n(C1CCOCC1)c(=O)n2C [AZD7648]; conditions: max 10 µM
Outline: as §1

[28] = compound: Cc1nc(-c2cn3c(n2)-c2ccc(-c4cnn(C(C)(C)C(N)=O)c4)cc2OCC3)n(C(C)C)n1 [Taselisib]; conditions: max 10 µM
Outline: as §1

[29] = compound: Cn1cnc2c(F)c(Nc3ccc(Br)cc3Cl)c(C(=O)NOCCO)cc21 [Selumetinib]; conditions: max 10 µM
Outline: as §1

[30] = compound: N#Cc1cnc(Nc2cc(NC[C@H]3CNCCO3)c(C(F)(F)F)cn2)cn1 [SRA737]; conditions: max 10 µM
Outline: as §1

[31] = compound: NC1(c2ccc(-c3nc4ccn5c(=O)[nH]nc5c4cc3-c3ccccc3)cc2)CCC1 [MK-2206]; conditions: max 10 µM
Outline: as §1

[32] = compound: Nc1ccn([C@@H]2O[C@H](CO)[C@@H](O)C2(F)F)c(=O)n1 [Gemcitabine]; conditions: max 0.3 µM
Outline: as §1

[33] = compound: O=C(Nc1ccc2[nH]nc(-c3ccncc3)c2c1)[C@@H]1CCN(CC(=O)N2CCN(c3ccc(-c4ncccn4)cc3)CC2)C1; conditions: max 5 µM
Outline: as §1

[34] = compound: O=C(c1cc(Cc2n[nH]c(=O)c3ccccc23)ccc1F)N1CCN(C(=O)C2CC2)CC1 [Olaparib]; conditions: max 10 µM
Outline: as §1

[35] = compound: O=c1[nH]cc(F)c(=O)[nH]1 [5-Fluorouracil]; conditions: max 20 µM
Outline: as §1

Question: How did the “IC50, cell viability 72 h” value [1] turn out when SW1463 (Colorectal Carcinoma) was run?
Answer: The value was over 10 µM.

Question: And the “IC50, cell viability 72 h” value [2]?
Answer: Its value is over 10 µM.

Question: And the “IC50, cell viability 72 h” value [3]?
Answer: Its value is over 3 µM.

Question: What about the “IC50, cell viability 72 h” value [4] of the same cell line?
Answer: The value was 0.0784 µM.

Question: What about the “IC50, cell viability 72 h” value [5] of the same cell line?
Answer: Its value is over 3 µM.

Question: What about the “IC50, cell viability 72 h” value [6] of the same cell line?
Answer: The value was 7.12 µM.

Question: And the “IC50, cell viability 72 h” value [7]?
Answer: The value was over 0.3 µM.

Question: And the “IC50, cell viability 72 h” value [8]?
Answer: Its value is over 1 µM.

Question: And the “IC50, cell viability 72 h” value [9]?
Answer: Its value is over 2 µM.

Question: And the “IC50, cell viability 72 h” value [10]?
Answer: The value was over 0.001 µM.

Question: And the “IC50, cell viability 72 h” value [11]?
Answer: Its value is over 1 µM.

Question: And the “IC50, cell viability 72 h” value [12]?
Answer: Its value is over 0.3 µM.

Question: What about the “IC50, cell viability 72 h” value [13] of the same cell line?
Answer: Its value is over 3 µM.

Question: What about the “IC50, cell viability 72 h” value [14] of the same cell line?
Answer: Its value is over 1 µM.

Question: And the “IC50, cell viability 72 h” value [15]?
Answer: The value was over 10 µM.

Question: What about the “IC50, cell viability 72 h” value [16] of the same cell line?
Answer: Its value is over 10 µM.

Question: What about the “IC50, cell viability 72 h” value [17] of the same cell line?
Answer: Its value is 3.27 µM.

Question: What about the “IC50, cell viability 72 h” value [18] of the same cell line?
Answer: Its value is 0.288 µM.

Question: What about the “IC50, cell viability 72 h” value [19] of the same cell line?
Answer: Its value is over 1 µM.

Question: What about the “IC50, cell viability 72 h” value [20] of the same cell line?
Answer: Its value is over 1 µM.

Question: And the “IC50, cell viability 72 h” value [21]?
Answer: The value was over 10 µM.

Question: What about the “IC50, cell viability 72 h” value [22] of the same cell line?
Answer: Its value is over 10 µM.

Question: What about the “IC50, cell viability 72 h” value [23] of the same cell line?
Answer: Its value is over 10 µM.

Question: And the “IC50, cell viability 72 h” value [24]?
Answer: Its value is over 1 µM.

Question: What about the “IC50, cell viability 72 h” value [25] of the same cell line?
Answer: Its value is over 10 µM.

Question: And the “IC50, cell viability 72 h” value [26]?
Answer: The value was over 1 µM.

Question: What about the “IC50, cell viability 72 h” value [27] of the same cell line?
Answer: Its value is over 10 µM.

Question: And the “IC50, cell viability 72 h” value [28]?
Answer: The value was over 10 µM.

Question: And the “IC50, cell viability 72 h” value [29]?
Answer: The value was 4.95 µM.

Question: And the “IC50, cell viability 72 h” value [30]?
Answer: Its value is over 10 µM.

Question: And the “IC50, cell viability 72 h” value [31]?
Answer: The value was over 10 µM.

Question: What about the “IC50, cell viability 72 h” value [32] of the same cell line?
Answer: Its value is over 0.3 µM.

Question: And the “IC50, cell viability 72 h” value [33]?
Answer: The value was over 5 µM.

Question: And the “IC50, cell viability 72 h” value [34]?
Answer: Its value is over 10 µM.

Question: What about the “IC50, cell viability 72 h” value [35] of the same cell line?
Answer: Its value is over 20 µM.
